Laboratory results taken from publication PMC6662706, “Short amylin receptor antagonist peptides improve memory deficits in Alzheimer’s disease mouse model” (Scientific Reports, 2019).
No end group written: not given here.

Assays:
HEK-WT cells = test: Flow cytometry cell binding and uptake of Cy5.5 labeled peptides, HEK-WT cells; type: cell-based, human; conditions: Cy5.5 labeled peptides 5 µM, 1 h, 37 °C
Description: Next, we labeled R5, R14 peptides with Cy5.5 to examine their in vitro binding efficacy and specificity compared with AC253 in HEK-AMY3 cells using flow cytometry and fluorescence microscopy (Fig. 1A,C).
For flow cytometry studies, HEK-AMY3 cells were used to determine cell binding and uptake and binding of Cy5.5 labeled AC253, and R5, R14, R11 fragments. Cell were plated at a density of 1.5 × 10^5 cells/well and cultured overnight in 12-well plates at 37 °C. Peptides (5 µM) were added and incubated for 1 h at 37 °C in serum free media. The culture media was then discarded, and cell monolayers were washed with PBS containing 2 mM EDTA and 0.5% BSA adjusted to pH 7.4 at 37°C, then cells were washed again with cold buffer and incubated with 0.25% trypsin to remove cell surface–associated fluorophores. Cells were then dispersed in FACS solution (10% FBS in PBS), and analyzed using a FACSCanto II flow cytometer (BD Biosciences, USA) selecting a detection window between 720 and 840 nm, and fluorescence histograms and dot plots were generated using FLOWJO software (Tree Star, Inc, USA). At least 10,000 gated events per sample were analyzed to develop the histogram. HEK-WT cells was used as negative control.

[1] = In vitro proteolytic stability in human serum; type: in vitro ADME; conditions: 37°C, intact peptide at different time points estimated by RP-HPLC
Description: Subsequently, we investigated the proteolytic stability of R5, and R14 compared to AC253. […] By assessing the main degradation fragments for both peptides using MALDI-TOF, we found both peptides to be cleaved at the basic arginine amino acids.
Supplementary Figure S2: The comparison of bio-distribution for the fragments and their parent peptide. (A) Ex vivo fluorescence showing bio-distribution images for Cy5.5-R5, R14, AC253 in different organs at after a 2 h of a single ip injection of the peptides (0.1 mmol in 200µl saline). (B) Quantification of peptides fluorescence in each organ (n=3). (C) In vitro stability of R5, R14, and AC253 peptides in human serum compared with AC253 at 37°C. The amount of intact peptide in human serum at different time points was estimated using RP-HPLC.

hippocampal LTP (CA1) = test: Hippocampal long-term potentiation (LTP) in slices from wild type mice; parameters: species or system mouse
Description: We examined whether the peptide fragments were capable of influencing Aβ- or hAmylin-induced reduction of hippocampal LTP in mice. Exposure of hippocampal slices from wild-type mice to hAmylin (50 nM) or Aβ (50 nM) depressed LTP induced by a weak tetanization protocol at the CA1 region as previously reported[20],[30]. To determine whether peptides affected hAmylin or Aβ- induced depression of LTP, we applied 250 nM R5 or R14 continuously for 5 min prior to exposure of the hippocampal slices to 50 nM hAmylin or Aβ and the subsequent LTP induction. […] We therefore sought to determine whether peptide fragments were also capable of improving LTP levels in the same TgCRND8 AD mouse model. […] Importantly, doses of the short peptide fragments used in these experiments were equimolar to those used for AC253 and pramlintide in our previous studies[20],[30].
For electrophysiology experiment, hippocampal slices (400-μm thick) were prepared using a vibratome from wild type and TgCRND8 mice (8 month of age, male or female). For long-term potentiation (LTP) measurement, the stimulus strength was set to elicit 40–50% of the maximum fEPSP (field excitatory postsynaptic potential) amplitude and test pulses were delivered once every 30s. LTP was induced by 3-theta-burst stimulation protocol (each burst consisted of four pulses at 100 Hz with a 200-ms interburst interval). All drugs and chemicals were applied directly to the slice via bath perfusion.
Brains were quickly removed from mice following decapitation, placed in a cold artificial cerebral spinal fluid (aCSF) on a vibratome chamber, and transverse sections cut through the hippocampus. The aCSF contained (in millimolar 124 NaCl, 3 KCl, 2.4 CaCl2, 2 MgCl2, 1.25 NaH2PO4, 26 NaHCO3, and 10 D-glucose and was equilibrated with 95 % O2 and 5 % CO2. Hippocampal slices (400-μm thick) were maintained in aCSF-filled holding chamber at room temperature for at least 1 h and individually transferred to the submerged glass bottom recording chamber, which was constantly perfused with aCSF (2 ml/min) at 30 °C. Field excitatory postsynaptic potential (fEPSP) was recorded with a metallic (Pt/Ir) electrode (FHC, Bowdoin, ME) from the stratum radiatum layer of Cornu ammonis 1 region of the hippocampus (CA1) area, and the Schaffer collateral afferents were stimulated with 100-μs test pulses via a bipolar cluster electrode (FHC). For long-term potentiation (LTP) experiments, the stimulus strength was set to elicit 40–50 % of the maximum fEPSP amplitude and test pulses were delivered to Schaffer collaterals once every 30 s. […] Before 3-TBS or drug application, the responses were monitored for at least 10 min to ensure a stable baseline of fEPSP. […]

LGRLSQELHRLQTYPRTNTGSNTY-NH2 (C-terminus assumed) [AC253, reference compound]
binding and uptake in HEK-WT cells compared to HEK-AMY3 cells (HEK-WT cells): reduced binding and uptake

SQELHRLQTYPR-NH2 [R5]
half-life [1]: 1 h
effect of peptide alone on hippocampal LTP (hippocampal LTP (CA1); wild type mouse slices, 250 nM): did not impair LTP
effect on Aβ-induced depression of hippocampal LTP (hippocampal LTP (CA1); wild-type mouse slices, peptide 250 nM for 5 min before Aβ1–42 50 nM, n = 6 recordings): reversed
effect on hAmylin-induced depression of hippocampal LTP (hippocampal LTP (CA1); wild-type mouse slices, peptide 250 nM for 5 min before hAmylin 50 nM, n = 6 recordings): reversed
